How the values were obtained:
Test in all cases: Broader kinase panel (PerkinElmer)
Type in all cases: biochemical
MARK2 = biological target: T1, MARK2 (Homo sapiens, UniProt Q7KZI7); details: 100 nM; read-out: Average Percent Inhibition
T1 construct: purchased In-house HTRF panel (56 kinases) and PerkinElmer (161-kinase panel)
Source text: (§1) […]. […] […].

EPHA2 = EPHA2 (Homo sapiens, UniProt P29317); details: 100 nM; read-out: Average Percent Inhibition
Source text: as §1

RET = RET (Homo sapiens, UniProt P07949); details: 100 nM; read-out: Average Percent Inhibition
Source text: as §1

FLT4 = biological target: T2, FLT4 (Homo sapiens, UniProt P35916); details: 100 nM; read-out: Average Percent Inhibition
T2 construct: purchased In-house HTRF panel (56 kinases) and PerkinElmer (161-kinase panel)
Source text: as §1

CDK2 = CDK2 (Homo sapiens, UniProt P24941); details: 100 nM; read-out: Average Percent Inhibition
Source text: as §1

CDK3 = biological target: T3, CDK3 (Homo sapiens, UniProt Q00526); details: 100 nM; read-out: Average Percent Inhibition
T3 construct: purchased In-house HTRF panel (56 kinases) and PerkinElmer (161-kinase panel)
Source text: as §1

FLT3 = FLT3 (Homo sapiens, UniProt P36888); details: 100 nM; read-out: Average Percent Inhibition
Source text: as §1

Ret (V804L) = biological target: T4, Ret (V804L) (Homo sapiens, UniProt P07949, V804L); details: 100 nM; read-out: Average Percent Inhibition
T4 construct: purchased In-house HTRF panel (56 kinases) and PerkinElmer (161-kinase panel)
Source text: as §1

CK1d = biological target: T5, CK1d (Homo sapiens, UniProt P48730); details: 100 nM; read-out: Average Percent Inhibition
T5 construct: purchased In-house HTRF panel (56 kinases) and PerkinElmer (161-kinase panel)
Source text: as §1

MST1 = biological target: T6, MST1 (Homo sapiens, UniProt Q13043); details: 100 nM; read-out: Average Percent Inhibition
T6 construct: purchased In-house HTRF panel (56 kinases) and PerkinElmer (161-kinase panel)
Source text: as §1

NEK1 = biological target: T7, NEK1 (Homo sapiens, UniProt Q96PY6); details: 100 nM; read-out: Average Percent Inhibition
T7 construct: purchased In-house HTRF panel (56 kinases) and PerkinElmer (161-kinase panel)
Source text: as §1

ROS (ROS1) = biological target: T8, ROS (ROS1) (Homo sapiens, UniProt P08922); details: 100 nM; read-out: Average Percent Inhibition
T8 construct: purchased In-house HTRF panel (56 kinases) and PerkinElmer (161-kinase panel)
Source text: as §1

MELK = biological target: T9, MELK (Homo sapiens, UniProt Q14680); details: 100 nM; read-out: Average Percent Inhibition
T9 construct: purchased In-house HTRF panel (56 kinases) and PerkinElmer (161-kinase panel)
Source text: as §1

ABL1(G250E) = biological target: T10, ABL1(G250E) (Homo sapiens, UniProt P00519, G250E); details: 100 nM; read-out: Average Percent Inhibition
T10 construct: purchased In-house HTRF panel (56 kinases) and PerkinElmer (161-kinase panel)
Source text: as §1

ABL = biological target: T11, ABL (Homo sapiens, UniProt P00519); details: 100 nM; read-out: Average Percent Inhibition
T11 construct: purchased In-house HTRF panel (56 kinases) and PerkinElmer (161-kinase panel)
Source text: as §1

PKGa = biological target: T12, PKGa (Homo sapiens, UniProt Q13976); details: 100 nM; read-out: Average Percent Inhibition
T12 construct: purchased In-house HTRF panel (56 kinases) and PerkinElmer (161-kinase panel)
Source text: as §1

AKT1 = AKT1 (Homo sapiens, UniProt P31749); details: 100 nM; read-out: Average Percent Inhibition
Source text: as §1

LTK = biological target: T13, LTK (Homo sapiens, UniProt P29376); details: 100 nM; read-out: Average Percent Inhibition
T13 construct: purchased In-house HTRF panel (56 kinases) and PerkinElmer (161-kinase panel)
Source text: as §1

ZIPK (DAPK3) = biological target: T14, ZIPK (DAPK3) (Homo sapiens, UniProt O43293); details: 100 nM; read-out: Average Percent Inhibition
T14 construct: purchased In-house HTRF panel (56 kinases) and PerkinElmer (161-kinase panel)
Source text: as §1

PKC-epsilon = biological target: T15, PKC-epsilon (Homo sapiens, UniProt Q02156); details: 100 nM; read-out: Average Percent Inhibition
T15 construct: purchased In-house HTRF panel (56 kinases) and PerkinElmer (161-kinase panel)
Source text: as §1

NuaK1 = biological target: T16, NuaK1 (Homo sapiens, UniProt O60285); details: 100 nM; read-out: Average Percent Inhibition
T16 construct: purchased In-house HTRF panel (56 kinases) and PerkinElmer (161-kinase panel)
Source text: as §1

GSK3B = biological target: T17, GSK3B (Homo sapiens, UniProt P49841); details: 100 nM; read-out: Average Percent Inhibition
T17 construct: purchased In-house HTRF panel (56 kinases) and PerkinElmer (161-kinase panel)
Source text: as §1

PAK2 = biological target: T18, PAK2 (Homo sapiens, UniProt Q13177); details: 100 nM; read-out: Average Percent Inhibition
T18 construct: purchased In-house HTRF panel (56 kinases) and PerkinElmer (161-kinase panel)
Source text: as §1

Yes = biological target: T19, Yes (Homo sapiens, UniProt P07947); details: 100 nM; read-out: Average Percent Inhibition
T19 construct: purchased In-house HTRF panel (56 kinases) and PerkinElmer (161-kinase panel)
Source text: as §1

AKT2 = biological target: T20, AKT2 (Homo sapiens, UniProt P31751); details: 100 nM; read-out: Average Percent Inhibition
T20 construct: purchased In-house HTRF panel (56 kinases) and PerkinElmer (161-kinase panel)
Source text: as §1

NEK2 = biological target: T21, NEK2 (Homo sapiens, UniProt P51955); details: 100 nM; read-out: Average Percent Inhibition
T21 construct: purchased In-house HTRF panel (56 kinases) and PerkinElmer (161-kinase panel)
Source text: as §1

ITK = biological target: T22, ITK (Homo sapiens, UniProt Q08881); details: 100 nM; read-out: Average Percent Inhibition
T22 construct: purchased In-house HTRF panel (56 kinases) and PerkinElmer (161-kinase panel)
Source text: as §1

CAMK2 = details: 100 nM
Source text: as §1

RSK3 = biological target: T23, RSK3 (Homo sapiens, UniProt Q15349); details: 100 nM; read-out: Average Percent Inhibition
T23 construct: purchased In-house HTRF panel (56 kinases) and PerkinElmer (161-kinase panel)
Source text: as §1

PIM1 = biological target: T24, PIM1 (Homo sapiens, UniProt P11309); details: 100 nM; read-out: Average Percent Inhibition
T24 construct: purchased In-house HTRF panel (56 kinases) and PerkinElmer (161-kinase panel)
Source text: as §1

ABL1(E255K) = biological target: T25, ABL1(E255K) (Homo sapiens, UniProt P00519, E255K); details: 100 nM; read-out: Average Percent Inhibition
T25 construct: purchased In-house HTRF panel (56 kinases) and PerkinElmer (161-kinase panel)
Source text: as §1

GCK = biological target: T26, GCK (Homo sapiens, UniProt Q12851); details: 100 nM; read-out: Average Percent Inhibition
T26 construct: purchased In-house HTRF panel (56 kinases) and PerkinElmer (161-kinase panel)
Source text: as §1

p38-beta 2 = biological target: T27, p38-beta 2 (Homo sapiens, UniProt Q15759); details: 100 nM; read-out: Average Percent Inhibition
T27 construct: purchased In-house HTRF panel (56 kinases) and PerkinElmer (161-kinase panel)
Source text: as §1

PKC-delta = biological target: T28, PKC-delta (Homo sapiens, UniProt Q05655); details: 100 nM; read-out: Average Percent Inhibition
T28 construct: purchased In-house HTRF panel (56 kinases) and PerkinElmer (161-kinase panel)
Source text: as §1

KIT[T670I] = biological target: T29, KIT[T670I] (Homo sapiens, UniProt P10721, T670I); details: 100 nM; read-out: Average Percent Inhibition
T29 construct: purchased In-house HTRF panel (56 kinases) and PerkinElmer (161-kinase panel)
Source text: as §1

RSK2 = RSK2 (Homo sapiens, UniProt P51812); details: 100 nM; read-out: Average Percent Inhibition
Source text: as §1

AKT3 = biological target: T30, AKT3 (Homo sapiens, UniProt Q9Y243); details: 100 nM; read-out: Average Percent Inhibition
T30 construct: purchased In-house HTRF panel (56 kinases) and PerkinElmer (161-kinase panel)
Source text: as §1

BTK = BTK (Homo sapiens, UniProt Q06187); details: 100 nM; read-out: Average Percent Inhibition
Source text: as §1

PKCb2 = biological target: T31, PKCb2 (Homo sapiens, UniProt P05771); details: 100 nM; read-out: Average Percent Inhibition
T31 construct: purchased In-house HTRF panel (56 kinases) and PerkinElmer (161-kinase panel)
Source text: as §1

MAPKAPK2 = MAPKAPK2 (Homo sapiens, UniProt P49137); details: 100 nM; read-out: Average Percent Inhibition
Source text: as §1

NTRK2 (TRKB) = biological target: T32, NTRK2 (TRKB) (Homo sapiens, UniProt Q16620); details: 100 nM; read-out: Average Percent Inhibition
T32 construct: purchased In-house HTRF panel (56 kinases) and PerkinElmer (161-kinase panel)
Source text: as §1

PKC-eta = biological target: T33, PKC-eta (Homo sapiens, UniProt P24723); details: 100 nM; read-out: Average Percent Inhibition
T33 construct: purchased In-house HTRF panel (56 kinases) and PerkinElmer (161-kinase panel)
Source text: as §1

KIT = biological target: T34, KIT (Homo sapiens, UniProt P10721); details: 100 nM; read-out: Average Percent Inhibition
T34 construct: purchased In-house HTRF panel (56 kinases) and PerkinElmer (161-kinase panel)
Source text: as §1

Chain of AKT1 (P31749 whole entry, species assumed): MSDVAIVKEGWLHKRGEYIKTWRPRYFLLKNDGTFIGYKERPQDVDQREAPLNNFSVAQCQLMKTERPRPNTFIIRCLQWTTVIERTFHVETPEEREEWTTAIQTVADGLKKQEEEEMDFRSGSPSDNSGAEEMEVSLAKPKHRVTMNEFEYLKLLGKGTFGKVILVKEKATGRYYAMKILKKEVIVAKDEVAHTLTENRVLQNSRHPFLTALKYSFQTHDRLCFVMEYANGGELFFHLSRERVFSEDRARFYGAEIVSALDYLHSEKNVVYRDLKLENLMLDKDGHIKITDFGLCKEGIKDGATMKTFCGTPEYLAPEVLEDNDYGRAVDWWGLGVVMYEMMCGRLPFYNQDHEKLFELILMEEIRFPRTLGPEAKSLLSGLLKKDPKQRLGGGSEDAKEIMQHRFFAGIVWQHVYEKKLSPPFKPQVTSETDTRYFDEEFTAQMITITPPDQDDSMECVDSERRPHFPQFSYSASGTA
T34 sequence (P10721 26-976): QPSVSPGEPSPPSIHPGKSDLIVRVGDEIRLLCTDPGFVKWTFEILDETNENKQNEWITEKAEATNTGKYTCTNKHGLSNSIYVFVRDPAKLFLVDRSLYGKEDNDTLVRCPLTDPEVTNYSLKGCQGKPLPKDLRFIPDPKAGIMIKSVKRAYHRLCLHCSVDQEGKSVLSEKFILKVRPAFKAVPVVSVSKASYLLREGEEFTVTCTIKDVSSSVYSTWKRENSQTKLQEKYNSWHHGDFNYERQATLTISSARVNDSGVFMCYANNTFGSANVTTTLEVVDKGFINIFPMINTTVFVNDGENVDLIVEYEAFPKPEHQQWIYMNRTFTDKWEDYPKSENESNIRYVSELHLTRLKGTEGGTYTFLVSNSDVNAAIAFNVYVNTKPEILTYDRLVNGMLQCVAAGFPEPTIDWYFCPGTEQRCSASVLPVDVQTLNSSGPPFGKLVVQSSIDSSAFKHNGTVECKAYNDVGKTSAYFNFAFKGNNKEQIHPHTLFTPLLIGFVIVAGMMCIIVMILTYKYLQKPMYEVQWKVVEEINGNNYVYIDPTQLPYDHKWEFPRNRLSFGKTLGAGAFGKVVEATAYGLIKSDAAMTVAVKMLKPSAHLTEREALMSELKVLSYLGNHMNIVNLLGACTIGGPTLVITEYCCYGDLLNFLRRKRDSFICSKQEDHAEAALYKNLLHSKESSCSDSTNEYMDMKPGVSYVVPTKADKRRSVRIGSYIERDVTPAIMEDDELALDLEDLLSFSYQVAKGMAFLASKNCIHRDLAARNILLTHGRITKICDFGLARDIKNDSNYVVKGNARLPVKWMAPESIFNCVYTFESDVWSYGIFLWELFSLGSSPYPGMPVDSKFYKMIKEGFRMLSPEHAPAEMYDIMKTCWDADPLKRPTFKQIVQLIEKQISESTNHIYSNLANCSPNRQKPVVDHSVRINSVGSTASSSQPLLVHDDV
T30 sequence (Q9Y243 whole entry): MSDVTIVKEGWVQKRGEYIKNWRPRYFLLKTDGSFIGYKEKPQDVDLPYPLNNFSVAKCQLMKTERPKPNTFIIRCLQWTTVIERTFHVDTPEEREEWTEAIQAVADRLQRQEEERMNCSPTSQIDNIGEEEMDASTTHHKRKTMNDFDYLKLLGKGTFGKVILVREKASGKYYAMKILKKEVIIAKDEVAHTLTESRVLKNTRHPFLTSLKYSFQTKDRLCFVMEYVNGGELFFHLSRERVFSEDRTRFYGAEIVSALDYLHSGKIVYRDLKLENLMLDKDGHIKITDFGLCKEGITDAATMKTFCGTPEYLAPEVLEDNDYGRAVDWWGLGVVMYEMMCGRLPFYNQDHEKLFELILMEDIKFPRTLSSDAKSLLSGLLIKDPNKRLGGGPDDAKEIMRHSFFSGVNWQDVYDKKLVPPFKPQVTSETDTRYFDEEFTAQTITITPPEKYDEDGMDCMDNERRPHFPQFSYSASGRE
T31 sequence (P05771 1-673 isoform P05771-2): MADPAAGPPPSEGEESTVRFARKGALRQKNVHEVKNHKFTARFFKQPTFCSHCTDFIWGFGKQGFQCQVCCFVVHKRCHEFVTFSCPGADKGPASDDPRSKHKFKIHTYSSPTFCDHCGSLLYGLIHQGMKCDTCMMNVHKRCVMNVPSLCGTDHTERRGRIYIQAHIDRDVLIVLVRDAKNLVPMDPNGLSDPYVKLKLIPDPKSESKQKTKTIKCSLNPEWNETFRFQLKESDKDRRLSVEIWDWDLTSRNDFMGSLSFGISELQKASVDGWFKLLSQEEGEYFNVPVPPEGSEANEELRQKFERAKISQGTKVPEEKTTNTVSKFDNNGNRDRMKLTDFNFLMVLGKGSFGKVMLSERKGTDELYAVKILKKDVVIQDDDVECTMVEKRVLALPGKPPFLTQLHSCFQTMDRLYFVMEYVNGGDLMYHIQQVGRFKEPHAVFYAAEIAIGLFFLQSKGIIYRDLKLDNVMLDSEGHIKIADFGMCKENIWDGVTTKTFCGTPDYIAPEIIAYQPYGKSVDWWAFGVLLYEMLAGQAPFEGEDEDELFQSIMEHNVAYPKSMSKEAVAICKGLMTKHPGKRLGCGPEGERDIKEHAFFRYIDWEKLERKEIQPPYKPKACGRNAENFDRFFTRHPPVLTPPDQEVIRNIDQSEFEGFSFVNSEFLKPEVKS
T9 sequence (Q14680 whole entry): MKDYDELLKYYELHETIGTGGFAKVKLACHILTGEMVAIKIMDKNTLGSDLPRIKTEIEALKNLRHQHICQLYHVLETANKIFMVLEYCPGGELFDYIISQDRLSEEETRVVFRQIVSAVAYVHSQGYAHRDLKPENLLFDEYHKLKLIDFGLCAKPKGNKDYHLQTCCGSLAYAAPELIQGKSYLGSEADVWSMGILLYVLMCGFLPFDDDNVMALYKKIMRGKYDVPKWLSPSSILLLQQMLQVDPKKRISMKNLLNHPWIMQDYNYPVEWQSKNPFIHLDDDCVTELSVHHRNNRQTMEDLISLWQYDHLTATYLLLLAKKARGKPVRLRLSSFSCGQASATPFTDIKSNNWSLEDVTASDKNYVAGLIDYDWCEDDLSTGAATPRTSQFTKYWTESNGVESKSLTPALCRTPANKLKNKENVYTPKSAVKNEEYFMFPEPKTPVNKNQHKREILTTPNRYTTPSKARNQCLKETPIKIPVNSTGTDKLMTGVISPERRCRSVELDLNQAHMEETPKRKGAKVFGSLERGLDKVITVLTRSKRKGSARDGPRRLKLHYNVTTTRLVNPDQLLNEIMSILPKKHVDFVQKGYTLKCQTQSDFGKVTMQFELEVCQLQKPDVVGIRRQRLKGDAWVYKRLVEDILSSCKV
T3 sequence (Q00526 whole entry): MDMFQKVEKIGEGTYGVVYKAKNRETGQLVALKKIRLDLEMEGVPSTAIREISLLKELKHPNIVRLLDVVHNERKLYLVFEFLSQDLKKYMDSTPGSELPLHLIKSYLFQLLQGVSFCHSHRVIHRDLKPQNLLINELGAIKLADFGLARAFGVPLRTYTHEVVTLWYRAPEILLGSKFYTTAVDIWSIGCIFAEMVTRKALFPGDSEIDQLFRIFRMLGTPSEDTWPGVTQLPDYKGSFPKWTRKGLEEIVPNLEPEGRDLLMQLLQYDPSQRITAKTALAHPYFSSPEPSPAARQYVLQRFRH
T3 sequence (P24864 whole entry partner): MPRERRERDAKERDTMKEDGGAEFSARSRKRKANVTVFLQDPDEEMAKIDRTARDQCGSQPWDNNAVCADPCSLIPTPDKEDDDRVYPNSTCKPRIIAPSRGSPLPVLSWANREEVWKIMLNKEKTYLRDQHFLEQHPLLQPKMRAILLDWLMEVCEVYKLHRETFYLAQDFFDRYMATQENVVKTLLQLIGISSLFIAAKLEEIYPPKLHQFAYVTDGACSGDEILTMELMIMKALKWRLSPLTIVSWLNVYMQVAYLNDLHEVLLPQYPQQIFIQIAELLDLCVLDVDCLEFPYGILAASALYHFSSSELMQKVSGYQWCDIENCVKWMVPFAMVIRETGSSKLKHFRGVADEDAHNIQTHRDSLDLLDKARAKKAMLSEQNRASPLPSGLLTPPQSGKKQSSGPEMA
T4 sequence (P07949 29-1114 V804L): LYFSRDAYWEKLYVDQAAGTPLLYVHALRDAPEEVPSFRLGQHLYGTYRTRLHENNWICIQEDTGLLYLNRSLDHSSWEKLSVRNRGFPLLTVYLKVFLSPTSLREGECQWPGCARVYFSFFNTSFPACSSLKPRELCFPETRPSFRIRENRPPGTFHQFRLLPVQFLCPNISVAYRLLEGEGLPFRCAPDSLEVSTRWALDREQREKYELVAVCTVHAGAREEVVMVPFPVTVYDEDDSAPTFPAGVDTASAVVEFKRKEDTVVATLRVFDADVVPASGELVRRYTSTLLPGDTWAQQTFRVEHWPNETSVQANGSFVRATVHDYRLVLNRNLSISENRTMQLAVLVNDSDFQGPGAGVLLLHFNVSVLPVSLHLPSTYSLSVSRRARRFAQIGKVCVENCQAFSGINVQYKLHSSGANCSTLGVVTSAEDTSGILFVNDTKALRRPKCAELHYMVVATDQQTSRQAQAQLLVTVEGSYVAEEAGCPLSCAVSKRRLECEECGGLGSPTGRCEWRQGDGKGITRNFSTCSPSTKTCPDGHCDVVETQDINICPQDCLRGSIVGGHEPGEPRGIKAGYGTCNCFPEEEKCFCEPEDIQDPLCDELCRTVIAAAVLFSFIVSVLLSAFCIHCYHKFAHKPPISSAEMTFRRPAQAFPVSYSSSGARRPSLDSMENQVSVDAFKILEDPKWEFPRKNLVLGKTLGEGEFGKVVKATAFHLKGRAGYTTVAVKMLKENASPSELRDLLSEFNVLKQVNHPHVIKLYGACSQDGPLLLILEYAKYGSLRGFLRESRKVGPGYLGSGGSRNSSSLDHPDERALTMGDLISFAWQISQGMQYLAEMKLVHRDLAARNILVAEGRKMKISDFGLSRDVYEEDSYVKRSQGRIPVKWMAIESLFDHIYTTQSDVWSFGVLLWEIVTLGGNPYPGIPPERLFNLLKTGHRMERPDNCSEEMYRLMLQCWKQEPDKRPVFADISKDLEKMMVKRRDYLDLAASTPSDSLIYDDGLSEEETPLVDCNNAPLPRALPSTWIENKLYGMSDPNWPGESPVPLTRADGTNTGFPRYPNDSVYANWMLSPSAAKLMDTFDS

Structure (SMILES): CCN1C(=O)N(c2c(F)c(OC)cc(OC)c2F)Cc2cnc3[nH]c(CN4CCOCC4)cc3c21 [INCB054828, pemigatinib]
- inhibition at 0.1 µM (MARK2): 5%
- inhibition at 0.1 µM (EPHA2): 3%
- inhibition at 0.1 µM (RET): 7%
- inhibition at 0.1 µM (FLT4): 38%
- inhibition at 0.1 µM (CDK2): -2%
- inhibition at 0.1 µM (CDK3): 11%
- inhibition at 0.1 µM (FLT3): 0%
- inhibition at 0.1 µM (Ret (V804L)): 0%
- inhibition at 0.1 µM (CK1d): -1%
- inhibition at 0.1 µM (MST1): -1%
- inhibition at 0.1 µM (NEK1): 1%
- inhibition at 0.1 µM (ROS (ROS1)): 3%
- inhibition at 0.1 µM (MELK): 2%
- inhibition at 0.1 µM (ABL1(G250E)): 1%
- inhibition at 0.1 µM (ABL): -4%
- inhibition at 0.1 µM (PKGa): 1%
- inhibition at 0.1 µM (AKT1): 2%
- inhibition at 0.1 µM (LTK): -17%
- inhibition at 0.1 µM (ZIPK (DAPK3)): 7%
- inhibition at 0.1 µM (PKC-epsilon): 1%
- inhibition at 0.1 µM (NuaK1): -3%
- inhibition at 0.1 µM (GSK3B): -1%
- inhibition at 0.1 µM (PAK2): 0%
- inhibition at 0.1 µM (Yes): 3%
- inhibition at 0.1 µM (AKT2): 2%
- inhibition at 0.1 µM (NEK2): -4%
- inhibition at 0.1 µM (ITK): 2%
- Average Percent Inhibition (CAMK2): 2%
- inhibition at 0.1 µM (RSK3): -3%
- inhibition at 0.1 µM (PIM1): -6%
- inhibition at 0.1 µM (ABL1(E255K)): 6%
- inhibition at 0.1 µM (GCK): 1%
- inhibition at 0.1 µM (p38-beta 2): 2%
- inhibition at 0.1 µM (PKC-delta): 9%
- inhibition at 0.1 µM (KIT[T670I]): -2%
- inhibition at 0.1 µM (RSK2): -2%
- inhibition at 0.1 µM (AKT3): 3%
- inhibition at 0.1 µM (BTK): -3%
- inhibition at 0.1 µM (PKCb2): 0%
- inhibition at 0.1 µM (MAPKAPK2): 0%
- inhibition at 0.1 µM (NTRK2 (TRKB)): 1%
- inhibition at 0.1 µM (PKC-eta): -4%
- inhibition at 0.1 µM (KIT): 4%

Source: PMC7313537 (PLoS ONE, 2020)
